# Reference: the NIST ThermoML archive (doi:10.1021/je100526j)
# ± gives the expanded uncertainty stated by the source.
# Tests used:
# [1] = for mass density: 101 kPa, Liquid
# [2] = xn = mol fraction of the nth substance listed; conditions: 101 kPa, Liquid
smiles,measurement,setting,value
c1ccccc1 [benzene],mass density,[1]; 298.15 K,873.63 ± 0.39 kg/m3
same,mass density,[1]; 308.15 K,862.91 ± 0.4 kg/m3
same,mass density,[1]; 318.15 K,852.12 ± 0.41 kg/m3
same,mass density,[1]; 328.15 K,841.24 ± 0.43 kg/m3
same,mass density,[1]; 338.15 K,830.26 ± 0.44 kg/m3
same,Normal melting temperature,"[1]; Crystal, visual observation",5.5 ± 0.3 °C
c1ccccc1 [benzene] + c1cc[nH]c1,mass density,"[2]; 298.15 K, x2 = 0",873.63 ± 0.39 kg/m3
same,mass density,"[2]; 308.15 K, x2 = 0",862.91 ± 0.4 kg/m3
same,mass density,"[2]; 318.15 K, x2 = 0",852.12 ± 0.41 kg/m3
same,mass density,"[2]; 328.15 K, x2 = 0",841.24 ± 0.43 kg/m3
same,mass density,"[2]; 338.15 K, x2 = 0",830.26 ± 0.44 kg/m3
c1cc[nH]c1 [pyrrole] + C1CCCCC1,mass density,"[2]; 298.15 K, x1 = 0.0749",786.03 ± 0.52 kg/m3
same,mass density,"[2]; 298.15 K, x1 = 0.1409",797.78 ± 0.51 kg/m3
same,mass density,"[2]; 298.15 K, x1 = 0.1864",805.48 ± 0.51 kg/m3
same,mass density,"[2]; 298.15 K, x1 = 0.2637",819.91 ± 0.5 kg/m3
same,mass density,"[2]; 298.15 K, x1 = 0.3549",837.14 ± 0.49 kg/m3
same,mass density,"[2]; 298.15 K, x1 = 0.4446",854.23 ± 0.48 kg/m3
same,mass density,"[2]; 298.15 K, x1 = 0.5058",866.13 ± 0.47 kg/m3
same,mass density,"[2]; 298.15 K, x1 = 0.6032",884.76 ± 0.46 kg/m3
same,mass density,"[2]; 298.15 K, x1 = 0.6712",898.56 ± 0.46 kg/m3
same,mass density,"[2]; 298.15 K, x1 = 0.7183",908.28 ± 0.46 kg/m3
same,mass density,"[2]; 298.15 K, x1 = 0.761",916.78 ± 0.45 kg/m3
same,mass density,"[2]; 298.15 K, x1 = 0.8376",932.14 ± 0.45 kg/m3
same,mass density,"[2]; 298.15 K, x1 = 0.8824",941.41 ± 0.45 kg/m3
same,mass density,"[2]; 298.15 K, x1 = 0.9424",953.79 ± 0.44 kg/m3
same,mass density,"[2]; 298.15 K, x1 = 1",965.54 ± 0.39 kg/m3
same,mass density,"[2]; 308.15 K, x1 = 0.0749",776.43 ± 0.54 kg/m3
same,mass density,"[2]; 308.15 K, x1 = 0.1409",788.17 ± 0.53 kg/m3
same,mass density,"[2]; 308.15 K, x1 = 0.1864",795.87 ± 0.52 kg/m3
same,mass density,"[2]; 308.15 K, x1 = 0.2637",810.32 ± 0.51 kg/m3
same,mass density,"[2]; 308.15 K, x1 = 0.3549",827.63 ± 0.5 kg/m3
same,mass density,"[2]; 308.15 K, x1 = 0.4446",844.82 ± 0.49 kg/m3
same,mass density,"[2]; 308.15 K, x1 = 0.5058",856.8 ± 0.48 kg/m3
same,mass density,"[2]; 308.15 K, x1 = 0.6032",875.58 ± 0.47 kg/m3
same,mass density,"[2]; 308.15 K, x1 = 0.6712",889.48 ± 0.47 kg/m3
same,mass density,"[2]; 308.15 K, x1 = 0.7183",899.28 ± 0.47 kg/m3
same,mass density,"[2]; 308.15 K, x1 = 0.761",907.83 ± 0.46 kg/m3
same,mass density,"[2]; 308.15 K, x1 = 0.8376",923.29 ± 0.46 kg/m3
same,mass density,"[2]; 308.15 K, x1 = 0.8824",932.59 ± 0.45 kg/m3
same,mass density,"[2]; 308.15 K, x1 = 0.9424",945.05 ± 0.45 kg/m3
same,mass density,"[2]; 308.15 K, x1 = 1",956.83 ± 0.4 kg/m3
same,mass density,"[2]; 318.15 K, x1 = 0.0749",766.72 ± 0.55 kg/m3
same,mass density,"[2]; 318.15 K, x1 = 0.1409",778.44 ± 0.54 kg/m3
same,mass density,"[2]; 318.15 K, x1 = 0.1864",786.14 ± 0.54 kg/m3
same,mass density,"[2]; 318.15 K, x1 = 0.2637",800.64 ± 0.52 kg/m3
same,mass density,"[2]; 318.15 K, x1 = 0.3549",818.03 ± 0.51 kg/m3
same,mass density,"[2]; 318.15 K, x1 = 0.4446",835.34 ± 0.5 kg/m3
same,mass density,"[2]; 318.15 K, x1 = 0.5058",847.4 ± 0.49 kg/m3
same,mass density,"[2]; 318.15 K, x1 = 0.6032",866.33 ± 0.48 kg/m3
same,mass density,"[2]; 318.15 K, x1 = 0.6712",880.32 ± 0.48 kg/m3
same,mass density,"[2]; 318.15 K, x1 = 0.7183",890.2 ± 0.47 kg/m3
same,mass density,"[2]; 318.15 K, x1 = 0.761",898.79 ± 0.47 kg/m3
same,mass density,"[2]; 318.15 K, x1 = 0.8376",914.35 ± 0.46 kg/m3
same,mass density,"[2]; 318.15 K, x1 = 0.8824",923.7 ± 0.46 kg/m3
same,mass density,"[2]; 318.15 K, x1 = 0.9424",936.21 ± 0.46 kg/m3
same,mass density,"[2]; 318.15 K, x1 = 1",948.03 ± 0.4 kg/m3
same,mass density,"[2]; 328.15 K, x1 = 0.0749",756.88 ± 0.56 kg/m3
same,mass density,"[2]; 328.15 K, x1 = 0.1409",768.58 ± 0.55 kg/m3
same,mass density,"[2]; 328.15 K, x1 = 0.1864",776.3 ± 0.55 kg/m3
same,mass density,"[2]; 328.15 K, x1 = 0.2637",790.86 ± 0.54 kg/m3
same,mass density,"[2]; 328.15 K, x1 = 0.3549",808.35 ± 0.52 kg/m3
same,mass density,"[2]; 328.15 K, x1 = 0.4446",825.81 ± 0.51 kg/m3
same,mass density,"[2]; 328.15 K, x1 = 0.5058",837.91 ± 0.5 kg/m3
same,mass density,"[2]; 328.15 K, x1 = 0.6032",856.97 ± 0.49 kg/m3
same,mass density,"[2]; 328.15 K, x1 = 0.6712",870.17 ± 0.49 kg/m3
same,mass density,"[2]; 328.15 K, x1 = 0.7183",881.03 ± 0.49 kg/m3
same,mass density,"[2]; 328.15 K, x1 = 0.761",889.65 ± 0.48 kg/m3
same,mass density,"[2]; 328.15 K, x1 = 0.8376",905.29 ± 0.47 kg/m3
same,mass density,"[2]; 328.15 K, x1 = 0.8824",914.69 ± 0.47 kg/m3
same,mass density,"[2]; 328.15 K, x1 = 0.9424",927.25 ± 0.47 kg/m3
same,mass density,"[2]; 328.15 K, x1 = 1",939.14 ± 0.41 kg/m3
same,mass density,"[2]; 338.15 K, x1 = 0.0749",746.91 ± 0.58 kg/m3
same,mass density,"[2]; 338.15 K, x1 = 0.1409",758.6 ± 0.57 kg/m3
same,mass density,"[2]; 338.15 K, x1 = 0.1864",766.32 ± 0.56 kg/m3
same,mass density,"[2]; 338.15 K, x1 = 0.2637",780.96 ± 0.55 kg/m3
same,mass density,"[2]; 338.15 K, x1 = 0.3549",798.62 ± 0.54 kg/m3
same,mass density,"[2]; 338.15 K, x1 = 0.4446",816.3 ± 0.52 kg/m3
same,mass density,"[2]; 338.15 K, x1 = 0.5058",828.38 ± 0.51 kg/m3
same,mass density,"[2]; 338.15 K, x1 = 0.6032",847.56 ± 0.5 kg/m3
same,mass density,"[2]; 338.15 K, x1 = 0.6712",861.68 ± 0.5 kg/m3
same,mass density,"[2]; 338.15 K, x1 = 0.7183",871.79 ± 0.49 kg/m3
same,mass density,"[2]; 338.15 K, x1 = 0.761",880.41 ± 0.49 kg/m3
same,mass density,"[2]; 338.15 K, x1 = 0.8376",896.1 ± 0.48 kg/m3
same,mass density,"[2]; 338.15 K, x1 = 0.8824",905.55 ± 0.48 kg/m3
same,mass density,"[2]; 338.15 K, x1 = 0.9424",918.18 ± 0.47 kg/m3
same,mass density,"[2]; 338.15 K, x1 = 1",930.13 ± 0.42 kg/m3
